Measurements as given in ChEMBL document CHEMBL1765078, “17-Hydroxycyclooctatin, a fused 5-8-5 ring diterpene, from Streptomyces sp. MTE4a” (J Nat Prod, 2011).
Active and inactive are the calls of the source. No cut-off for these calls is given here.

System: Staphylococcus aureus
Assay: Antibacterial activity against Staphylococcus aureus at 1 mg/ml
Assay type: functional, organism-based

`C[C@H](CO)[C@H]1CC[C@]2(C)C[C@@H]3[C@H](CO)C[C@@H](O)[C@H]3[C@@](C)(O)C/C=C/12` was tested, and the Activity was “inactive”.
